Test results from paper PMC4666645 (PLoS Pathogens, 2015).
Counter-ions that a name gives are not always drawn. Like-named read-outs stand apart in the source and are kept apart here.

Columns and labels:
Hco-26/27 receptor = Hco-26/27 receptor (Haemonchus contortus, UniProt A9XX30+S4VAP0); test: cell-based
Excerpt: In order to investigate if the overlapping expression contributed to functional receptors, we co-expressed Hco-ACR-26 and Hco-ACR-27 in Xenopus laevis oocytes. We have previously reported that the functional expression of nematode muscle AChRs in Xenopus oocytes requires the addition of ancillary proteins. Therefore, cRNAs encoding the subunits Hco-ACR-26 and Hco-ACR-27, in combination with three ancillary proteins (Hco-ric-3.1, Hco-unc-74 and Hco-unc-50) were co-injected into Xenopus oocytes. […] Subsequently, different cRNA combinations were injected into Xenopus oocytes in order to determine the minimal subunit combination leading to the expression of a functional receptor and verify the ancillary factor requirement.
The subunit stoichiometry has been previously reported to impact the pharmacological properties of some nematode AChRs expressed in Xenopus oocytes.
(§1) H. contortus and P. equorum acr-26 and acr-27 cDNAs were PCR-amplified using primers containing a restriction site in order to be sub-cloned into the expression vector pTB207 that is suitable for in vitro transcription. Primers are listed in S3 Table. The resulting plasmids were linearized with the NheI restriction enzyme (Fermantas) and used as templates for cRNA synthesis using the T7 mMessage mMachine kit (Ambion). Xenopus laevis ovaries were obtained from the University of Rennes, France (CRB Xenope) and defolliculated using 2 mg/ml collagenase type II (Gibco) in the incubation solution containing: 100 mM NaCl, 2 mM KCl, 1.8 mM CaCl2.2H2O, 1 mM MgCl2.6H2O, 5 mM HEPES, 2.5 mM C3H3NaO3, pH 7.5, supplemented with penicillin 100 U/mL and streptomycin 100 μg/mL). The oocytes were injected in the animal pole with a total volume of 36 nL of cRNA mix containing 50 ng/μL of each cRNA in RNase-free water using the Drummond nanoject II microinjector. Microinjected oocytes were kept at 20°C in incubation medium for 4 days to allow the receptors expression. Two-electrode voltage-clamp recordings were carried out using an Oocyte Clamp OC-725C amplifier (Warner instrument) in oocytes being voltage-clamped at -60mV. All agonist preparations were prepared with recording buffer (100 mM NaCl, 2.5 mM KCl, 1 mM CaCl2.2H2O, 5 mM HEPES, pH 7.3). Currents were recorded and analyzed using the pCLAMP 10.4 package (Molecular Devices).

Peq-26/27 receptor = Peq-26/27 receptor (Parascaris equorum, UniProt A0A0U2ES47+A0A0U2ES58); test: cell-based
Sequence of Peq-26/27 receptor (A0A0U2ES58 entry or part of it): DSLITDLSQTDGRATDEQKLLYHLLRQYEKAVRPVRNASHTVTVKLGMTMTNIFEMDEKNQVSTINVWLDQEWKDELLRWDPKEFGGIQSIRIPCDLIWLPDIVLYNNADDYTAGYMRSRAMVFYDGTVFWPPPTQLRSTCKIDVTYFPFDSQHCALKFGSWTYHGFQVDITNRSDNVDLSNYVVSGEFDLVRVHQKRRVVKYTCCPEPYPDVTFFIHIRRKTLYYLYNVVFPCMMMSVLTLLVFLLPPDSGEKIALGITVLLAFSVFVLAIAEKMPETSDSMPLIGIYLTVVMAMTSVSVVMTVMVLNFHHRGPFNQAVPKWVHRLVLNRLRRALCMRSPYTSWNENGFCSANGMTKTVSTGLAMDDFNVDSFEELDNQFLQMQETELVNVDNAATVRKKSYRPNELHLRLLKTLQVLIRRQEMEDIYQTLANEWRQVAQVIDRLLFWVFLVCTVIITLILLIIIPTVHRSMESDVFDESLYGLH
Sequence of Peq-26/27 receptor (A0A0U2ES47 entry or part of it): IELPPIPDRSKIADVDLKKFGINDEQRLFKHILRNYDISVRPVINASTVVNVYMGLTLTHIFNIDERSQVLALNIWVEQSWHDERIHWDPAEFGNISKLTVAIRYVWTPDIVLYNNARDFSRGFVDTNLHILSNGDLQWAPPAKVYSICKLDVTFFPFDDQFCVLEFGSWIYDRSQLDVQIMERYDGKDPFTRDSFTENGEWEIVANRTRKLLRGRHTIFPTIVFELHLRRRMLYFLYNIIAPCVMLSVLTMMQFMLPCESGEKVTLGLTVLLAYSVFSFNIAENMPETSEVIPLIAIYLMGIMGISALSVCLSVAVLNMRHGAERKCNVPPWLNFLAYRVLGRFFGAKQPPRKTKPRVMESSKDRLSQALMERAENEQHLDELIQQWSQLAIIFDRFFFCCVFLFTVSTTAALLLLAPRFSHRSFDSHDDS
Description: In order to determine if ACR-26 and ACR-27 subunits from other parasitic nematodes species could also form functional receptors when expressed in Xenopus oocyte, Peq-acr-26 and Peq-acr-27 cRNAs from the distantly related P. equorum (Clade III) were co-injected in combination with Hco-ric-3.1, Hco-unc-74 and Hco-unc-50 cRNAs. Four days after injection, we observed robust expression of a functional AChR responding to 100 μM ACh (Fig 6B). […] This novel heteropentameric AChR was named Peq-26/27.
as §1

[1] = 100 μM agonist, normalized to 100 μM ACh current, equal subunit ratio
[2] = read-out: Relative maximal current (Imax) normalized to 100 μM acetylcholine, cRNA ratio 1:1 26/27, 100 μM agonist

Sequence of Hco-26/27 receptor (A9XX30 entry or part of it): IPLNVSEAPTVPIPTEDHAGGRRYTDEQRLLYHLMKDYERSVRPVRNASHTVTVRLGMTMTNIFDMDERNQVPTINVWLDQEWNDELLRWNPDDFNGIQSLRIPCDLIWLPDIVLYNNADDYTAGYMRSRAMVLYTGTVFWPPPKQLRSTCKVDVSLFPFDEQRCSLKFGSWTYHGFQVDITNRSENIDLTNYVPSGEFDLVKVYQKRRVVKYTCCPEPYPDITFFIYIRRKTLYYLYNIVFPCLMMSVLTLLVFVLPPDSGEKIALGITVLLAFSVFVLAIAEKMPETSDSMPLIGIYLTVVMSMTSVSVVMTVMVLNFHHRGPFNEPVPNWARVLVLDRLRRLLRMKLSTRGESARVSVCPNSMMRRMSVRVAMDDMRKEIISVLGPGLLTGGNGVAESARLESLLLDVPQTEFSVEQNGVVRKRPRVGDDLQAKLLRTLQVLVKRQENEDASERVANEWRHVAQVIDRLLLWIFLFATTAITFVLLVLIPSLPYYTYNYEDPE
Sequence of Hco-26/27 receptor (S4VAP0 entry or part of it): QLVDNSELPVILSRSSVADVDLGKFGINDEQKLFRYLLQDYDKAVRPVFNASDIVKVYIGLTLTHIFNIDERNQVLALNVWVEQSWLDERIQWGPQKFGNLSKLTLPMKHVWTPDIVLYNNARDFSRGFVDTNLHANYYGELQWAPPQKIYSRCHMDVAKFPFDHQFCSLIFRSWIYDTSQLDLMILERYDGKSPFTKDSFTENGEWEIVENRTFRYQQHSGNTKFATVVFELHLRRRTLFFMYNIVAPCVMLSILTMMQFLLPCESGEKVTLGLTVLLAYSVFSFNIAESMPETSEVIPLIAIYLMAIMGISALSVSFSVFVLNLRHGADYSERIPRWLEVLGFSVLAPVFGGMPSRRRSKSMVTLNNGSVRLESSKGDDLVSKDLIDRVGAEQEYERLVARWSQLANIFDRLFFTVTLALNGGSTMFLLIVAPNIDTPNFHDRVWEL

CC(=O)OCC[N+](C)(C)C [ACh, Acetylcholine chloride]
EC50 (Hco-26/27 receptor): 80.1 ± 1.1 µM
Emax at 100 µM (Hco-26/27 receptor; cRNA ratio 1:1 26/27, 100 μM agonist, read-out: Relative maximal current (Imax) normalized to 100 μM acetylcholine): 100%
Emax at 100 µM (Hco-26/27 receptor; cRNA ratio 1:5 26/27, 100 μM agonist, read-out: Relative maximal current (Imax) normalized to 100 μM acetylcholine): 100%
Emax at 100 µM (Hco-26/27 receptor; cRNA ratio 5:1 26/27, 100 μM agonist, read-out: Relative maximal current (Imax) normalized to 100 μM acetylcholine): 100%
EC50 (Peq-26/27 receptor): 34.9 ± 1.1 µM

C[N+](C)(CCOc1ccccc1)Cc1ccccc1 [Beph, bephenium]
Current elicited, % of ACh response (Hco-26/27 receptor; [1]): insensitive
Emax at 100 µM (Hco-26/27 receptor; [2]): 3.21 ± 1.61%
Emax at 100 µM (Hco-26/27 receptor; read-out: Relative maximal current (Imax) normalized to 100 μM acetylcholine, cRNA ratio 1:5 26/27, 100 μM agonist): 2.26 ± 2.26%

CN1CCC[C@H]1c1cccnc1 [Nic, (-)-nicotine hydrogen tartrate]
Current elicited, % of ACh response (Hco-26/27 receptor): insensitive
Current elicited, % of ACh response (Peq-26/27 receptor; 100 μM agonist, normalized to 100 μM ACh current): insensitive

CN1CCCN=C1/C=C/c1cccc(O)c1 [Oxa, oxantel]
Current elicited, % of ACh response (Hco-26/27 receptor; [1]): insensitive
Emax at 100 µM (Hco-26/27 receptor; [2]): 0.95 ± 0.95%
